Experimental data published in ChEMBL document CHEMBL1909046, “DrugMatrix in vitro pharmacology data”.

What was measured:
[1] = DRUGMATRIX: Nicotinic Acetylcholine radioligand binding (ligand: [125I] Epibatidine); format: cell membranes, Membrane; details: imr-32; Not Active = under 50% inhibition at 10 µM
[2] = target: Adenosine receptor A2a (Homo sapiens, UniProt P29274); experiment: DRUGMATRIX: Adenosine A2A radioligand binding (ligand: […]); format: cell membranes, HEK293, Membrane; details: hek293; Not Active = under 50% inhibition at 10 µM
Adenosine receptor A2a, sequence (P29274 whole entry): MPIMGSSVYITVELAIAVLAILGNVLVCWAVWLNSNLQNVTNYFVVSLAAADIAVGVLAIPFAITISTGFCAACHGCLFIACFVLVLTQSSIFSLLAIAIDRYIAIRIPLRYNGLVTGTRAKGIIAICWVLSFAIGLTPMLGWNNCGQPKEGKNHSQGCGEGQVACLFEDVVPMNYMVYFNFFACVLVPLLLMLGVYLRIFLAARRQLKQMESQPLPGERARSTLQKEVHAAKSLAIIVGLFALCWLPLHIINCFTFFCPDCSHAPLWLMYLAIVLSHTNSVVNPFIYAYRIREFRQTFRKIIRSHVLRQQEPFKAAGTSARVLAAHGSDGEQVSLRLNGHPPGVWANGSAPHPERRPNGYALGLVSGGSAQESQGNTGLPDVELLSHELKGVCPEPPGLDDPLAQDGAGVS

[3] = target: Substance-P receptor (Homo sapiens, UniProt P25103); format: cell membranes, CHO, Membrane; details: cho; note: in other assays of this panel Not Active means under 50% inhibition at 10 µM
Substance-P receptor, sequence (P25103 whole entry): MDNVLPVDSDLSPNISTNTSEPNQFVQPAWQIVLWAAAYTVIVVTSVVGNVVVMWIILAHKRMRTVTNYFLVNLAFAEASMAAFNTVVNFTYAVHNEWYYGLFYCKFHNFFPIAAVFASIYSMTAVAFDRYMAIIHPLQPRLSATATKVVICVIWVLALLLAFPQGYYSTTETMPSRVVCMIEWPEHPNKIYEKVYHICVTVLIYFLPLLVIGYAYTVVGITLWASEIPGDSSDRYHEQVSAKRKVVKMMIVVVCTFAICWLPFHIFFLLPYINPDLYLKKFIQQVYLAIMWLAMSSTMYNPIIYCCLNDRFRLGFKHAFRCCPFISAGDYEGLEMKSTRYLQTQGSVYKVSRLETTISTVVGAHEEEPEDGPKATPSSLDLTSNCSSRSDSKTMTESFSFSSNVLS

[4] = DRUGMATRIX: GABAA, Muscimol, Central radioligand binding (ligand: [3H] Muscimol); format: cell membranes, Rattus norvegicus, Wistar, Brain, Membrane; details: Not Active = under 50% inhibition at 10 µM
[5] = target: T1, Substance-K receptor (Homo sapiens, UniProt P21452); format: cell membranes, CHO, Membrane; details: cho; note: in other assays of this panel Not Active means under 50% inhibition at 10 µM
T1 sequence (P21452 whole entry): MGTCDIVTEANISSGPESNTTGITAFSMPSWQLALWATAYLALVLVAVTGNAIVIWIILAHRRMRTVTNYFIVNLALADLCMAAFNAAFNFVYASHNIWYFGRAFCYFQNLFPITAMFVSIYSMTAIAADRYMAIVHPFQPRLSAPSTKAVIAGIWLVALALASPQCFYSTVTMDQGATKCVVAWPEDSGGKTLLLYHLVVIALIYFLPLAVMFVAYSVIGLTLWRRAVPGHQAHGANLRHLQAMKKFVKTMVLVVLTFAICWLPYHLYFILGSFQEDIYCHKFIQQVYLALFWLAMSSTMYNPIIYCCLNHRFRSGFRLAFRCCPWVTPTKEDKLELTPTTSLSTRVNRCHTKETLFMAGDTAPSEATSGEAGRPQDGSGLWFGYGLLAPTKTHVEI

[6] = target: C-C chemokine receptor type 5 (Homo sapiens, UniProt P51681); format: cell membranes, Membrane; details: hek293; note: in other assays of this panel Not Active means under 50% inhibition at 10 µM
C-C chemokine receptor type 5, sequence (P51681 whole entry): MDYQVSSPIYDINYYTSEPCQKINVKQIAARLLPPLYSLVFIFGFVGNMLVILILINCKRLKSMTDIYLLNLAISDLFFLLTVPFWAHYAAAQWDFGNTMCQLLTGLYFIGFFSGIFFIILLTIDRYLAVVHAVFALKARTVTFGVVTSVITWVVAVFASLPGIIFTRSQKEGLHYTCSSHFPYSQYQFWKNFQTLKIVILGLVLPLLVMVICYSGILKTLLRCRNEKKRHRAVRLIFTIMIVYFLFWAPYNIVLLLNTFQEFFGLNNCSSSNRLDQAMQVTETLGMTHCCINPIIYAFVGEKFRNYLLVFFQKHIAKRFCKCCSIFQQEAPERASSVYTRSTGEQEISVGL

[7] = DRUGMATRIX: Potassium Channel [KATP] radioligand binding (ligand: [3H] Glyburide); format: cell membranes, Membrane; details: hit-t15; Not Active = under 50% inhibition at 10 µM
[8] = DRUGMATRIX: Interleukin IL-1 radioligand binding (ligand: [125I] interleukin 1beta); format: cell membranes, Membrane; details: nih3t3; Not Active = under 50% inhibition at 10 µM
[9] = target: Mitogen-activated protein kinase 3 (Homo sapiens, UniProt P27361); experiment: DRUGMATRIX: Protein Serine/Threonine Kinase, ERK1 enzyme inhibition (substrate: Myelin Basic Protein); design: species or system Escherichia coli; details: Not Active = under 50% inhibition at 10 µM
Mitogen-activated protein kinase 3, sequence (P27361 whole entry): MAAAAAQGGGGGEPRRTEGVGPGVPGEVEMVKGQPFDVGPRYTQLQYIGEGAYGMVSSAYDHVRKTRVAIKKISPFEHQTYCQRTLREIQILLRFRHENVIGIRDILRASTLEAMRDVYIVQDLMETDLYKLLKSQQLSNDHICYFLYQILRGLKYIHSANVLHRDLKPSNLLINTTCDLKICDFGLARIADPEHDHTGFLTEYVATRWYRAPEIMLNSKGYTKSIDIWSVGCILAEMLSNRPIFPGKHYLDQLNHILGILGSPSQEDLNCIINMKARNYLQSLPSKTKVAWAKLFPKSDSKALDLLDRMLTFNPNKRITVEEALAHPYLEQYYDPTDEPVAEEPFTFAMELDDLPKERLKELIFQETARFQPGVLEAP

[10] = target: T2, Calcitonin receptor (Homo sapiens, UniProt P30988); format: cell membranes, Membrane; details: t47d; note: in other assays of this panel Not Active means under 50% inhibition at 10 µM
T2 sequence (P30988 whole entry): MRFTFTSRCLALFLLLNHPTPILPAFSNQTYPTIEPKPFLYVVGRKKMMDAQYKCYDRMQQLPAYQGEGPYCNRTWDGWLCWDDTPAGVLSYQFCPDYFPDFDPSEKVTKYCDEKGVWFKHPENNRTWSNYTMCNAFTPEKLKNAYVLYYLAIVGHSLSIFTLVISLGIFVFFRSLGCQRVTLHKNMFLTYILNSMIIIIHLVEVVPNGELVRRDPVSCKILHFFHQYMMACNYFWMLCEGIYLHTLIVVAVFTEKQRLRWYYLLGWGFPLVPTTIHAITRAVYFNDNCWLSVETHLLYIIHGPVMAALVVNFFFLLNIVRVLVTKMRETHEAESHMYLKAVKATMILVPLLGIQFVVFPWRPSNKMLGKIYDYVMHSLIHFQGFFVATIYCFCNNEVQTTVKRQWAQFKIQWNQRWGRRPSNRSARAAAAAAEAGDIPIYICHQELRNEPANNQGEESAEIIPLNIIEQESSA

[11] = target: Glycine receptor (Rattus norvegicus, UniProt P22771+P24524+P07727+P20781); format: cell membranes, Wistar, Spinal cord, Membrane; note: in other assays of this panel Not Active means under 50% inhibition at 10 µM
[12] = target: T3, Angiotensin-converting enzyme (Oryctolagus cuniculus, UniProt P12822); experiment: biochemical; format: tissue-based, Lung
T3 sequence (P12822 whole entry): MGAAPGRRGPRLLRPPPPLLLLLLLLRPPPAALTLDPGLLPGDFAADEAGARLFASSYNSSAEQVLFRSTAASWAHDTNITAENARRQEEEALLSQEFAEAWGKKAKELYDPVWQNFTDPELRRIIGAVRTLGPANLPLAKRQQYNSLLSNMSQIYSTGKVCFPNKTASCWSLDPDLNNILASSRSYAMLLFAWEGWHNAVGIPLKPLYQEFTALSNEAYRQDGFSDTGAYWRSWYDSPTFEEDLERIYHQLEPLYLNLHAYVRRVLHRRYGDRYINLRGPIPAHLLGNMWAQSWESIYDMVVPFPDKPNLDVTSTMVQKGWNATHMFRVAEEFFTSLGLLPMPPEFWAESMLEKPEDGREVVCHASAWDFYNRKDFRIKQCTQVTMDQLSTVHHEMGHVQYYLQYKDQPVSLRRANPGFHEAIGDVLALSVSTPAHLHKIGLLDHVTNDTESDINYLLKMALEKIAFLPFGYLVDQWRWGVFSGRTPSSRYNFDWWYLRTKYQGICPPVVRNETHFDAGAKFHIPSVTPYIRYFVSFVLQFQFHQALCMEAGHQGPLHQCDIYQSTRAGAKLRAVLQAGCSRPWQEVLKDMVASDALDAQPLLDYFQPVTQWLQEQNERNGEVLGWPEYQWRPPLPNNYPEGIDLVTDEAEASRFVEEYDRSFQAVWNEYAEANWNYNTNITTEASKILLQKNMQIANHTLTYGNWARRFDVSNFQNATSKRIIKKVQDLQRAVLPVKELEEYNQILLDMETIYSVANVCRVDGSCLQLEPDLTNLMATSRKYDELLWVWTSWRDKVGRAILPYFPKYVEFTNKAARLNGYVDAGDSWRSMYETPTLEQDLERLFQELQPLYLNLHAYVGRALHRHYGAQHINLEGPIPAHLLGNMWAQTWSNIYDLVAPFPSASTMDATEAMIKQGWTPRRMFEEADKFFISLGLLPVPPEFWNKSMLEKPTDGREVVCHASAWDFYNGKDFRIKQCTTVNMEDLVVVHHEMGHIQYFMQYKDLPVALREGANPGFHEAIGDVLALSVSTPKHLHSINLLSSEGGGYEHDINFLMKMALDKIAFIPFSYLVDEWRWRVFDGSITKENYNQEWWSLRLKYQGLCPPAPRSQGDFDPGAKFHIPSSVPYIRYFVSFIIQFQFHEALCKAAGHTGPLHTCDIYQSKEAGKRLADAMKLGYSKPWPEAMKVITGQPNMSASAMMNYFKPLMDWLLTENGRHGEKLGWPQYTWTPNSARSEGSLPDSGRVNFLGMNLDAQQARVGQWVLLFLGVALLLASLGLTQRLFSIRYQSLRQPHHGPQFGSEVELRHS

O=c1[nH]cc(F)c(=O)[nH]1 [FLUOROURACIL]
Not Active: IC50 [1] | Ki [1] | IC50 [2] | IC50 [3] | IC50 [4] | Ki [4] | IC50 [5] | IC50 [6] | IC50 [7] | Ki [7] | IC50 [8] | Ki [8] | IC50 [9] | IC50 [10] | IC50 [11] | IC50 [12]

COc1ccc2cc(CC(=O)O)ccc2c1
Not Active: IC50 [1] | Ki [1] | IC50 [2] | IC50 [3] | IC50 [4] | Ki [4] | IC50 [5] | IC50 [6] | IC50 [7] | Ki [7] | IC50 [8] | Ki [8] | IC50 [9] | IC50 [10] | IC50 [11] | IC50 [12]

CC[C@@]1(O)C(=O)OCc2c1cc1n(c2=O)Cc2cc3ccccc3nc2-1 [CAMPTOTHECIN]
Not Active: IC50 [1] | Ki [1] | IC50 [2] | IC50 [3] | IC50 [4] | Ki [4] | IC50 [5] | IC50 [6] | IC50 [7] | Ki [7] | IC50 [8] | Ki [8] | IC50 [9] | IC50 [10] | IC50 [11] | IC50 [12]

NCC1(CC(=O)O)CCCCC1 [GABAPENTIN]
Not Active: IC50 [1] | Ki [1] | IC50 [2] | IC50 [3] | IC50 [4] | Ki [4] | IC50 [5] | IC50 [6] | IC50 [7] | Ki [7] | IC50 [8] | Ki [8] | IC50 [9] | IC50 [10] | IC50 [11] | IC50 [12]

CN1C(C(=O)Nc2ccccn2)=C(O)c2ccccc2S1(=O)=O [PIROXICAM]
Not Active: IC50 [1] | Ki [1] | IC50 [2] | IC50 [3] | IC50 [4] | Ki [4] | IC50 [5] | IC50 [6] | IC50 [7] | Ki [7] | IC50 [8] | Ki [8] | IC50 [9] | IC50 [10] | IC50 [11] | IC50 [12]

C=C1[C@@H]2CCC3[C@@](CC[C@@H]4[C@H](C(=O)O)C[C@@H](O[C@@H]5O[C@H](CO)[C@@H](OS(=O)(=O)[O-])[C@H](OS(=O)(=O)[O-])[C@H]5OC(=O)CC(C)C)C[C@@]34C)(C2)[C@@H]1O.[K+].[K+] (stereo partly specified) [ATRACTYLOSIDE]
Not Active: IC50 [1] | Ki [1] | IC50 [2] | IC50 [3] | IC50 [4] | Ki [4] | IC50 [5] | IC50 [6] | IC50 [7] | Ki [7] | IC50 [8] | Ki [8] | IC50 [9] | IC50 [10] | IC50 [11] | IC50 [12]
